# Data as given in patent publication US11833207B2, “Adipocyte-targeting DNA nanodrug and preparation and uses thereof” (HUNAN UNIVERSITY, priority 2020, dated 2023).
# Experiments:
# [1] = EPR measurement of O2·− scavenging (DEPMPO trapper)
# Procedure: Electron paramagnetic resonance (EPR) measurements were performed to evaluate the O2·^−- and ·OH-scavenging abilities of DNA hybrid nanostructures TADN. DEPMPO was used as the trapper. O2·^− was generated by dissolving KO2 in DMSO/crown ether (0.2 M). ·OH was produced by the Fenton-type reaction using H2O2 and CuSO4.
# 3T3-L1 preadipocytes = type: cell-based; conditions: mouse, 24 h
# Procedure: 3T3-L1 preadipocytes were seeded in a 96-well plate at 10^4/well. After culturing for 24 h, the preadipocytes were added with TA, TDM or TADN for another 24 h culture. The culture medium was removed, and the cells were washed twice with PBS, followed by the addition of 100 μL of fresh culture medium and 10 μL of CCK-8 for the CCK-8 assay according to the manufacturer's protocol. The UV absorbance of each well at 450 nm was recorded using a Synergy 2 multifunctional microplate reader (Bio-Tek, Winooski, Vt.).
# BSA = BSA (Bos taurus, UniProt P02769); test: Nonspecific protein (BSA) absorption by BSA fluorescence
# BSA, sequence (P02769 25-607): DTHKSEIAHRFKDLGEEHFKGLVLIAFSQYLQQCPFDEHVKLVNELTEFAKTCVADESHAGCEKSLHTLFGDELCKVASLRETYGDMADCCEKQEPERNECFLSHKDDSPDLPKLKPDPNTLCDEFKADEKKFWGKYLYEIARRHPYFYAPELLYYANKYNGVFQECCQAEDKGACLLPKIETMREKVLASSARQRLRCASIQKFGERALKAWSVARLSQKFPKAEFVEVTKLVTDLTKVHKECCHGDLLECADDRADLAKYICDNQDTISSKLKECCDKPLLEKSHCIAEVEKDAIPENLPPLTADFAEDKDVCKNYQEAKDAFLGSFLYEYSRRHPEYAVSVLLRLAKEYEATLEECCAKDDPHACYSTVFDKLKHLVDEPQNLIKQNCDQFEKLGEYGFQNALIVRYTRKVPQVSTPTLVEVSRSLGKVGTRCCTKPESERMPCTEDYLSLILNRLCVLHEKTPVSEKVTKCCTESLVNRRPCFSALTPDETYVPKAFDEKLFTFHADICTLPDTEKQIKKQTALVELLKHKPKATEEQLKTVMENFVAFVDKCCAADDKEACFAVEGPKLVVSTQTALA
structure (smiles),measurement,setting,value
"O=C(OC[C@H]1O[C@@H](OC(=O)c2cc(O)c(O)c(OC(=O)c3cc(O)c(O)c(O)c3)c2)[C@H](OC(=O)c2cc(O)c(O)c(OC(=O)c3cc(O)c(O)c(O)c3)c2)[C@@H](OC(=O)c2cc(O)c(O)c(OC(=O)c3cc(O)c(O)c(O)c3)c2)[C@@H]1OC(=O)c1cc(O)c(O)c(OC(=O)c2cc(O)c(O)c(O)c2)c1)c1cc(O)c(O)c(OC(=O)c2cc(O)c(O)c(O)c2)c1 [TA, tannic acid]",O2·−-scavenging activity,[1]; EPR,comparable scavenging activity to TADN
same,O2·−-scavenging stability,[1]; after 24 h,almost disappeared
same,concentration above which cytotoxicity increases,3T3-L1 preadipocytes,above 25 μM
same,protein adsorption,BSA,tended to absorb proteins
